Structures are written as SMILES. Where two headings read alike, the source gives them in different places.

Common to all, as to test: SelectScreen Kinase Profiling, single point inhibition and IC50 for off-target kinases
Assay type in all cases: biochemical

The target of test [1] is off-target kinases (Homo sapiens, UniProt Q15759). The settings on record: MAPK11 (p38 beta), ZLYTE, ATP Km app.
For test [2], the target named is off-target kinases (Homo sapiens, UniProt O75914). The conditions noted are these: PAK3, ZLYTE, ATP Km app.
off-target kinases (Homo sapiens, UniProt O75914), sequence (O75914 whole entry): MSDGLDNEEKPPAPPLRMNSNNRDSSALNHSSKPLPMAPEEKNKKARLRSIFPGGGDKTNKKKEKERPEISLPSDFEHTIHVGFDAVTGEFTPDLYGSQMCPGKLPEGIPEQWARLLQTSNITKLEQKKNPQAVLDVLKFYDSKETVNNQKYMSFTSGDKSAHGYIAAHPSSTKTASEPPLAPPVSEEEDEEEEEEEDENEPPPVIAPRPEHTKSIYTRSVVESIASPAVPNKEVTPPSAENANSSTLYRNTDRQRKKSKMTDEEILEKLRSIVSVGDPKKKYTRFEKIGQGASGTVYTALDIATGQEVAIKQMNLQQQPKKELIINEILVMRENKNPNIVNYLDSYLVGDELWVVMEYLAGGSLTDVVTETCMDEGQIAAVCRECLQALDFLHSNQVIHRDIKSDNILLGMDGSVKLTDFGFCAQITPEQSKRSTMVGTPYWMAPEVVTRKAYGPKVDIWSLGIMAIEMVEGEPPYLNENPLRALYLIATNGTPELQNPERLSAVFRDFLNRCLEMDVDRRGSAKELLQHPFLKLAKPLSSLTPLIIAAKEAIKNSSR
The target of test [3] is off-target kinases (Homo sapiens, UniProt P53671). The conditions noted are these: LIMK2, LanthaScreen Binding. Background: TR-FRET usually uses a lanthanide donor and a delayed reading to cut background.
off-target kinases (Homo sapiens, UniProt P53671), sequence (P53671 whole entry): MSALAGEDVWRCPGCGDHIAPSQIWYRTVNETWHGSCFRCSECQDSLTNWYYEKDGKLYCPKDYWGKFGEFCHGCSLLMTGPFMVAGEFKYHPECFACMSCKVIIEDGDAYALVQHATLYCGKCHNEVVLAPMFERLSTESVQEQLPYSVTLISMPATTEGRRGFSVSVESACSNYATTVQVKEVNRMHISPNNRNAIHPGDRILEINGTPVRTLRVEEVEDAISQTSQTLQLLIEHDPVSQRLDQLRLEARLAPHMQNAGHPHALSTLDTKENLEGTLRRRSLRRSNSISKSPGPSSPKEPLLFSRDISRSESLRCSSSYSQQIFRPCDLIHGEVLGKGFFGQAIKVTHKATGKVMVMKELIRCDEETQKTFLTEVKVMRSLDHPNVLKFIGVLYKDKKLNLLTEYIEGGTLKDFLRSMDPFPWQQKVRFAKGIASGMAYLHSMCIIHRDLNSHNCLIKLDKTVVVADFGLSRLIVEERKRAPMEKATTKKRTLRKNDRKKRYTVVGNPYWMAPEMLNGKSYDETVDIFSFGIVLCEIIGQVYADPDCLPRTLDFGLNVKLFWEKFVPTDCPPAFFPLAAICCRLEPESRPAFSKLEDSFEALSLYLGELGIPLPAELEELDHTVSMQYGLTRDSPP
Test [4] has as its target off-target kinases (Homo sapiens, UniProt P17252). The conditions noted are these: PRKCA (PKC alpha), ZLYTE, ATP Km app.
The target of test [5] is off-target kinases (Homo sapiens, UniProt Q9H2X6). The conditions noted are these: HIPK2, ZLYTE, ATP Km app.
off-target kinases (Homo sapiens, UniProt Q9H2X6), sequence (Q9H2X6 whole entry): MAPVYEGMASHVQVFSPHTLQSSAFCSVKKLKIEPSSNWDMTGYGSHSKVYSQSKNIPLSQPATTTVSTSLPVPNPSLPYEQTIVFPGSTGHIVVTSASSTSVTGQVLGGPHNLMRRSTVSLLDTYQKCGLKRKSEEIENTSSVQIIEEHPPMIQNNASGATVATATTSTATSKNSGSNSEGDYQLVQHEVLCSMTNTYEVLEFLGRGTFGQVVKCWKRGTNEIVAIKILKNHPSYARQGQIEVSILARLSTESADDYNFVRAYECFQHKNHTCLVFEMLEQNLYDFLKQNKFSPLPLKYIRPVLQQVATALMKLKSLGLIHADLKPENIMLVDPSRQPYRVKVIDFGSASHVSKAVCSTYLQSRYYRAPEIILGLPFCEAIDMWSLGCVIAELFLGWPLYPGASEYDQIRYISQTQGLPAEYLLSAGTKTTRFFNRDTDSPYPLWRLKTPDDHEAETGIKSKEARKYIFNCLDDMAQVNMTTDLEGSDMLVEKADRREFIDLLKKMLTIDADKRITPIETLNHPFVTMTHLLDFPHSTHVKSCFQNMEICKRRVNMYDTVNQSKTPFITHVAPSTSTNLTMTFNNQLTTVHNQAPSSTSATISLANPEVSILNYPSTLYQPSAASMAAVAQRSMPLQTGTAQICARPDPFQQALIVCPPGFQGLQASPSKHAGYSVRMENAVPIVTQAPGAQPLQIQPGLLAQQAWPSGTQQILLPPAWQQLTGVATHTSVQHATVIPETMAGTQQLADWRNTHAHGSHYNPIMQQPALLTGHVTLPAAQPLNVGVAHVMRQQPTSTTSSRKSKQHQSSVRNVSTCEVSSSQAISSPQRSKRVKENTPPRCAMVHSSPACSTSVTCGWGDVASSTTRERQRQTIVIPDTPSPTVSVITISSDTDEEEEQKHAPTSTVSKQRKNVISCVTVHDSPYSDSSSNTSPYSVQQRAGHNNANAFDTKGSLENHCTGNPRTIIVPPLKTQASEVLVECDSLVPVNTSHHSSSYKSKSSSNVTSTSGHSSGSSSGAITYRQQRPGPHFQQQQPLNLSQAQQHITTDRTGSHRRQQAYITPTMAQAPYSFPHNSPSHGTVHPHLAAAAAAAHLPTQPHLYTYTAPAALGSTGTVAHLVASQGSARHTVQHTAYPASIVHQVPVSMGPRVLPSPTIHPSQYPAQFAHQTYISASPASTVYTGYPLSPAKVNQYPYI
The target of test [6] is T1, off-target kinases (Homo sapiens, UniProt O75385).
T1 sequence (O75385 1-1050): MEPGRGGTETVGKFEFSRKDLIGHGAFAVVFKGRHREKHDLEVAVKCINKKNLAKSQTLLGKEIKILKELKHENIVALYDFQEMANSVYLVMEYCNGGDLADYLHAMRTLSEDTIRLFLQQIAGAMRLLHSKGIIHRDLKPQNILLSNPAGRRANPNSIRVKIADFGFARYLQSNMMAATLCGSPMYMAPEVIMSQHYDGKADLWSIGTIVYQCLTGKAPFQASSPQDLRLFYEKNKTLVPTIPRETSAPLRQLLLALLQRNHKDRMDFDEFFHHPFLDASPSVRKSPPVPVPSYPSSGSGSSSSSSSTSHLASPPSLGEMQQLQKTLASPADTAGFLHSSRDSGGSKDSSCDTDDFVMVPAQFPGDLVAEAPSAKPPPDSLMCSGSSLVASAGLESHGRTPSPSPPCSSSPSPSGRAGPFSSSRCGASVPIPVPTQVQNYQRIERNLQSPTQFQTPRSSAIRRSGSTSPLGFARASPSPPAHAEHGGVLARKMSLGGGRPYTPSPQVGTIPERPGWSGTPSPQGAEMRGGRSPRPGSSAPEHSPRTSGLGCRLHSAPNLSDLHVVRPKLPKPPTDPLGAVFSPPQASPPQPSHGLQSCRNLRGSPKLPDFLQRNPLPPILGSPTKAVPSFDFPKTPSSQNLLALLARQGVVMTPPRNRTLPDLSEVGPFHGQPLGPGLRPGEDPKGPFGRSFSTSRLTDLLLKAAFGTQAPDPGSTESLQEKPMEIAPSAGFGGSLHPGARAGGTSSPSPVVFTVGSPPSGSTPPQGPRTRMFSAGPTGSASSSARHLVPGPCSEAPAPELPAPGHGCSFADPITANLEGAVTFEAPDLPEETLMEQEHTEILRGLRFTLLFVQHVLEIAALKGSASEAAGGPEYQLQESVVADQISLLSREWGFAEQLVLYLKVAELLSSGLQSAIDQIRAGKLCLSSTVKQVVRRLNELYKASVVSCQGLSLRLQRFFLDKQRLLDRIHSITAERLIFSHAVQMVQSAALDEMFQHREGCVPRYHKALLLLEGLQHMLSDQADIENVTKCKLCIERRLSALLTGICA
The conditions noted are these: ULK1, LanthaScreen Binding.

off-target kinases (Homo sapiens, UniProt Q15759), sequence (Q15759 whole entry): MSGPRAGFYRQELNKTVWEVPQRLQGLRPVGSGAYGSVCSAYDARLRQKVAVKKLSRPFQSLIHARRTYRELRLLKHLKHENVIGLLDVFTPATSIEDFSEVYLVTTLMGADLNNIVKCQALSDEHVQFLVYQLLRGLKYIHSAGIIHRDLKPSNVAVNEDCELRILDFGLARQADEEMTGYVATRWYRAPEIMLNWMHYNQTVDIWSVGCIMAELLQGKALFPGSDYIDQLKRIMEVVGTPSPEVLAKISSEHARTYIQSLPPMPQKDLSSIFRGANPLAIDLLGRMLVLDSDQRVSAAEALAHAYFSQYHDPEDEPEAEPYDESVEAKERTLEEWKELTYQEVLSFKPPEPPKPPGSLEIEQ

By inhibition is commonly meant the drop in the measured response relative to a control, in per cent. As for `N#Cc1cc(-c2ncnc(Nc3ccc(N4CCN(C5COC5)CC4)cc3)n2)ccc1OC1CCOCC1` [Compound 1, 5-(4-((4-(4-(oxetan-3-yl)piperazin-1-yl)phenyl)amino)-1,3,5-triazin-2-yl)-2-((tetrahydro-2H-pyran-4-yl)oxy)benzonitrile], the inhibition on off-target kinases [1] (read-out: % Inhibition 1) came to 6%; at off-target kinases [1] (read-out: % Inhibition 2), 4%; on off-target kinases [1] (read-out: % Inhibition Avg), 5%; on off-target kinases [2] (read-out: % Inhibition 1), 7%; at off-target kinases [2] (read-out: % Inhibition 2), 2%; on off-target kinases [2] (read-out: % Inhibition Avg), 5%. Further, the inhibition is 14% at off-target kinases [3] (read-out: % Inhibition 1); 19% at off-target kinases [3] (read-out: % Inhibition 2); 17% on off-target kinases [3] (read-out: % Inhibition Avg); 0% on off-target kinases [4] (read-out: % Inhibition 1); -5% at off-target kinases [4] (read-out: % Inhibition 2); -2% at off-target kinases [4] (read-out: % Inhibition Avg). Also, the inhibition is 21% on off-target kinases [5] (read-out: % Inhibition 1); 19% at off-target kinases [5] (read-out: % Inhibition 2); 20% at off-target kinases [5] (read-out: % Inhibition Avg); 91% on off-target kinases [6] (read-out: % Inhibition 1); 92% on off-target kinases [6] (read-out: % Inhibition 2); 92% at off-target kinases [6] (read-out: % Inhibition Avg).

Values taken from patent publication US11572590B2, “Methods for evaluating tumor cell spheroids using 3D microfluidic cell culture device” (Dana-Farber Cancer Institute, Inc., priority 2017, dated 2023).
